In the test the target is T1, recombinant wild-type TTR (Homo sapiens, UniProt P02766).
T1 construct: made in house; host or cells: bacteria
Kind of test: Native-PAGE of TTR incubated with heparin (Coomassie, Alcian blue, 3H counting of gel sections). Type of test: biochemical. The method, then:
TTR dissolved in phosphate buffer (pH 2.7) was co-incubated with heparin (mixture of ^3H-labeled and non-labeled) at 37° C. for 48 h. (A) The TTR-heparin co-incubated sample and heparin alone were separated with native-PAGE and stained with Alcian blue. (B) An identical set of samples was separated on the native-PAGE as above, and each lane was cut into six sections (as illustrated in A). The gel slices were incubated for 2 hr in H2O to extract the heparin. The radioactivity was measured by scintillation counting.
TTR dissolved in phosphate buffer (pH 2.7) was incubated without heparin at 37° C. for 48 h. Heparin (mixture of ^3H-labeled and nonlabeled) was then added and the TTR-heparin sample was incubated for an additional hour at 37° C. The sample was thereafter separated by native-PAGE and the gel was cut into 6 sections as illustrated in FIG. 4A. Radioactivity in each section was measured by scintillation counting. Data represents triplicate experiments (mean±SEM).
Recombinant wild-type TTR was expressed in bacteria and purified as described previously (Furuya et al. (1991) Biochemistry 30:2415-2421). The purified protein was dissolved in 20 mM phosphate buffer-citric acid (pH 2.7, 3.5, 4.5 or 7.4) to a final concentration of 50 μM for Thioflavin T fluorescence or 500 μM for native-PAGE. Heparin (3H-labeled or unlabeled) and HS were added to the TTR solution to the concentrations as indicated in the respective figure legend. The samples were incubated at 37° C. for the time period as specified.
After incubation, 10 μl of the samples was mixed with 2.5 μl of a 5× sample buffer (0.3 M Tris-HCl, pH 6.8, 0.05% bromophenol blue, 50% glycerol) and loaded onto a 10% polyacrylamide gel without SDS. […] For quantification of ^3H-labeled heparin, the corresponding lanes in the gel were cut into six sections including the stacking gel (see FIG. 4A) that were transferred to a scintillation vial in 3 ml of H2O. After 2 hr incubation, 2 ml of scintillation cocktail was added and the radioactivity was measured.

In the case of heparin, the “Migration pattern of TTR aggregates on native-PAGE” value (TTR 500 μM, heparin 5 or 20 μM, pH 2.7, 37° C., 48 h) was “substantial macromolecular TTR aggregates migrating in the top of the gel”. The “Interaction of 3H-labeled heparin with pre-aggregated TTR (gel sections)” value (TTR aggregated 48 h without heparin, then heparin for 1 h at 37° C.) is “no or very little heparin interacted with aggregated TTR”. In addition, the “Recovery of 3H-labeled heparin in gel sections after co-incubation with TTR” value (pH 2.7, 37° C., 48 h co-incubation) is “substantially recovered in section 1”.

The values are drawn from patent US20150037341A1, “Diagnostic and Therapeutic Method” (Plysackaridforskning i Uppsala AB, priority 2011, published 2015).
